Among the data in ChEMBL document CHEMBL2046434, “Morita-Baylis-Hillman adducts: biological activities and potentialities to the discovery of new cheaper drugs” (Bioorg Med Chem, 2012) are inhibition of growth, zone of inhibition and IC50 values, retold here.

Test [1] has as its system HeLa. As to the kind of experiment: Growth inhibition of human HeLa cells at 5 uM. As to conditions: read-out: GI. It is filed as functional.
The test system of test [2] is Aspergillus niger. As to the kind of experiment: Antimicrobial activity against Aspergillus niger. It is filed as functional.
Test [3] concerns Candida albicans. As to the kind of experiment: Antimicrobial activity against Candida albicans. The test is classed as functional.
The test system of test [4] is Leishmania amazonensis. In words: Antileishmanial activity against Leishmania amazonensis promastigotes. The test is classed as functional, organism-based.
The subject of test [5] is Trypanosoma cruzi. In words: Antitrypanosomal activity against Trypanosoma cruzi epimastigotes. The test is classed as functional, organism-based.
The test system of test [6] is Trypanosoma cruzi. As to the kind of experiment: Antitrypanosomal activity against Trypanosoma cruzi trypomastigotes. It is filed as functional, organism-based.

Molecules are shown by their SMILES.

Consider `Cc1ccc(S(=O)(=O)NC(/C(=C/c2ccoc2)[N+](=O)[O-])c2ccccc2)cc1` (stereo unspecified), for which, in test [1], the inhibition of growth at 5 µM was determined as 28%. For `C=C(C#N)C(O)c1ccc(F)cc1` (stereo unspecified), the values for the zone of inhibition in test [2] and in test [3] were 11 mm and 13 mm, respectively. On to `Cc1ccc(S(=O)(=O)NC(/C(=C/c2ccco2)[N+](=O)[O-])c2ccco2)cc1` (stereo unspecified), for which, in test [1], the inhibition of growth at 5 µM was 32%. Same read-out and setting: as for `CC(=O)CC/C(=C/c1ccccc1)[N+](=O)[O-]`, the figure is > 70%.

As to `C=C(C(=O)OC)C(O)c1ccccc1[N+](=O)[O-]` (stereo unspecified), the IC50 (in general, the point on the concentration scale where inhibition reaches its midpoint) in test [4] stood at 50.1 µM. In addition, the zone of inhibition (usually the extent of the growth-free halo in a diffusion test) was found to be 11 mm in test [2] and 12 mm in test [3]. With `Cc1ccc(S(=O)(=O)NC(/C(=C/c2ccco2)[N+](=O)[O-])c2ccccc2)cc1` (stereo unspecified), in test [1], the inhibition of growth at 5 µM stood at 44%. In the case of `C=C(C(=O)OCC)C(O)c1ccc([N+](=O)[O-])cc1` (stereo unspecified), the zone of inhibition in test [2] worked out at 12 mm; in test [3], 11 mm.

For `C=C(C(=O)OC)C(O)c1ccc([N+](=O)[O-])cc1` (stereo unspecified), the 50% inhibitory concentration (IC50) in test [4] was determined as 196 µM. In test [3], this molecule came in with a zone of inhibition of 13 mm. Take `Cc1ccc(S(=O)(=O)NC(/C(=C/c2cccs2)[N+](=O)[O-])c2ccccc2)cc1` (stereo unspecified): the inhibition of growth at 5 µM in test [1] is 49%.

Turning to `C=C(C(=O)OC)C(O)c1cccc([N+](=O)[O-])c1` (stereo unspecified), 452 µM corresponded to half-maximal inhibition in test [4] (IC50). Molecule `C=C(C#N)C(O)c1ccccc1OC` (stereo unspecified) yielded a zone of inhibition in test [2] of 12 mm.

Regarding `C=C(C(=O)OCC)C(O)c1ccccc1Cl` (stereo unspecified), the figures for the zone of inhibition in test [2] and in test [3] were 14 mm and 13 mm, respectively. In the case of `C=C(C#N)C(O)c1ccc(Cl)cc1` (stereo unspecified), the zone of inhibition worked out at 12 mm in test [2] and 13 mm in test [3]. Take `Cc1ccc(S(=O)(=O)NC(/C(=C/c2ccsc2)[N+](=O)[O-])c2ccccc2)cc1` (stereo unspecified): the inhibition of growth at 5 µM in test [1] is 45%. Turning to `C=C(C(=O)OCC)C(O)c1ccccc1OC` (stereo unspecified), the zone of inhibition in test [3] came out at 12 mm. Turning to `C=C(C#N)C(O)c1ccccc1Cl` (stereo unspecified), the zone of inhibition in test [2] came out at 14 mm; in test [3] it was 13 mm. For the molecule `C=C(C(=O)OCC)C(O)c1ccc(Cl)cc1Cl` (stereo unspecified), the zone of inhibition was 11 mm in test [2] and 15 mm in test [3]. `COc1ccc(/C=C(/C(NS(=O)(=O)c2ccc(C)cc2)c2ccccc2)[N+](=O)[O-])cc1OC` (stereo unspecified): in test [1], the inhibition of growth at 5 µM stood at 35%. For the molecule `COc1ccc(/C=C(/C(NS(=O)(=O)c2ccc(C)cc2)c2ccccc2)[N+](=O)[O-])cc1` (stereo unspecified), the inhibition of growth at 5 µM in test [1] was 23%.

Consider `COc1ccc(/C=C(/CCC(C)=O)[N+](=O)[O-])cc1`, for which the inhibition of growth at 5 µM in test [1] is > 70%.

With `C=C(C(=O)OCC)C(O)c1ccc(Cl)cc1` (stereo unspecified), the zone of inhibition in test [2] came out at 11 mm; in test [3], 12 mm. For `C=C(C(=O)CC)C(O)c1ccc(Cl)cc1` (stereo unspecified) the same measures were 13 mm and 12 mm. As to `C=C(C(=O)OCC)C(O)c1ccc(F)cc1` (stereo unspecified), the results for the zone of inhibition in test [2] and in test [3] were 14 mm and 15 mm, respectively.

`C=C(C#N)C(O)c1cccc([N+](=O)[O-])c1` (stereo unspecified): the zone of inhibition stood at 14 mm in test [2] and 10 mm in test [3]. As to `Cc1ccc(S(=O)(=O)NC(/C(=C/c2ccoc2)[N+](=O)[O-])c2ccco2)cc1` (stereo unspecified), in test [1], the inhibition of growth at 5 µM turned out to be 33%.

For `CC(=O)CC/C(=C/c1ccc(Cl)cc1)[N+](=O)[O-]`, the inhibition of growth at 5 µM in test [1] was > 70%.

Regarding `C=C(C#N)C(O)c1ccc(Cl)cc1Cl` (stereo unspecified), the zone of inhibition was 13 mm in test [2] and 11 mm in test [3]. As to `Cc1ccc(S(=O)(=O)NC(/C(=C/c2cccs2)[N+](=O)[O-])c2ccco2)cc1` (stereo unspecified), the inhibition of growth at 5 µM in test [1] amounted to 28%. In the case of `C=C(C#N)C(O)c1ccc([N+](=O)[O-])cc1` (stereo unspecified), the 50% inhibitory concentration (IC50) in test [5] came to 28.5 µM; in test [6] it was 25.5 µM. The zone of inhibition in test [2] and in test [3] was 12 mm throughout.

Turning to `C=C(C(=O)OCC)C(O)c1cccc([N+](=O)[O-])c1` (stereo unspecified), the zone of inhibition in test [2] amounted to 13 mm; in test [3] it was 14 mm.

As to `Cc1ccc(S(=O)(=O)NC(/C(=C/c2ccc3c(c2)OCO3)[N+](=O)[O-])c2ccccc2)cc1` (stereo unspecified), the inhibition of growth at 5 µM in test [1] is 29%. On to `C=C(C#N)C(O)c1ccccc1[N+](=O)[O-]` (stereo unspecified), for which the zone of inhibition in test [2] stood at 11 mm; in test [3], 13 mm.
